Test results: patent US12097177B2, “Therapeutic method for cat with chronic kidney disease” (Toray Industries, Inc., priority 2021, dated 2024)
Like-named read-outs stand apart in the source and are kept apart here.

How the values were obtained:
cats with CKD = experiment: Retrospective observation study: period before progression into IRIS stage 4, BPS therapy vs No BPS therapy (Kaplan-Meier); format: in vivo, cat; details: for 3-year stage progression-free rate: cats with CKD, twice daily
Description: To compare the periods before progression of feline CKD into stage 4 with BPS therapy and without BPS therapy, the following retrospective observation studies were performed. The studies were performed at Ichikawa General Hospital, Kariya Animal Hospital, Inc., that had adopted the electronic chart system for veterinary hospitals, Ahmics (trademark) (PetCommunications Co., Ltd.), and completely eliminated the use of paper charts before 2017. In this hospital, all-encompassing information concerning medical treatment such as test data, death records, and drug prescription records of all patient animals have been managed by the electronic chart system. Specifically, the data sets of 1,681 cats subjected to the serum creatinine test and the data sets of 1,399 cats subjected to the urinalysis from Apr. 1, 2017 to Dec. 10, 2020 were extracted. Among them, by excluding 951 cats without records, the data sets of 730 cats that were diagnosed to have CKD as a result of serum creatinine tests at least two times, urinalysis, and other clinical tests were extracted.
Based on the drug prescription records, cats were divided into two groups: a BPS therapy group consisting of 57 cats; and a BPS therapy-free group consisting of 77 cats, and the baseline characteristics and the periods before progression into stage 4 were compared and analyzed retrospectively. To the cats in the BPS therapy group, BPS drugs for veterinary use, RAPROS (trademark) (Toray Industries, Inc.), were administered while adjusting the amount of BPS to 14.1 to 52.4 μg/kg body weight/day and the median to 29.1 μg/kg body weight/day twice daily during or after morning and evening feeding occasions. […] Progression into stage 4 was examined by the method defined by the IRIS staging. Specifically, progression into stage 4 was determined based on serum creatinine or serum SDMA measured to be higher than 5.0 mg/dL or higher than 38 μg/dL, respectively, via two or more hospital visits. By designating progression into stage 4 as the outcome, the start date of treatment as the point of origin for the cats in the BPS therapy group, and the start date of observation as the point of origin for the cats in the No BPS therapy group, the periods (months) before the outcome was observed were recorded. In analysis, the 3-year stage progression-free rates (%) of the BPS therapy group and of the No BPS therapy group, the standard errors thereof, the 95% confidence intervals, and the comparison of the 3-year stage progression-free rates (%) between the groups were calculated. […] The average period (months) before progression into stage 4, the standard error thereof, the 95% confidence intervals, the medians and the standard errors thereof, the 95% confidence intervals, and the comparison of the average stage progression-free periods were calculated. Differences in the stage progression-free rates were assessed by the log rank test, the Cochran-Mantel-Haenszel test, by setting significant level at a two-tailed P-value of <0.05.
Based on the drug prescription records, cats were divided into two groups: a BPS therapy group consisting of 37 cats; and a BPS therapy-free group consisting of 332 cats, and the baseline characteristics and the periods before progression into stage 4 were compared and analyzed retrospectively. To the cats in the BPS therapy group, BPS drugs for veterinary use, RAPROS (trademark) (Toray Industries, Inc.), were administered while adjusting the amount of BPS to 18.5 to 42.3 μg/kg body weight/day and the median to 26.5 μg/kg body weight/day twice daily during or after morning and evening feeding occasions. Progression into stage 4 was examined by the method defined by the IRIS staging. Specifically, progression into stage 4 was determined based on serum creatinine or serum SDMA measured to be higher than 5.0 mg/dL or higher than 38 μg/dL, respectively, via two or more hospital visits. […]

[1] = system: cats with chronic renal failure; details: cited from earlier work; for kidney function: 4 cats
[2] = system: patient with chronic renal failure; details: BPS immediate release tablets; serum creatinine of 2.2 mg/dl or higher; cited from earlier work
[3] = stage 2 (serum creatinine 1.6 to 2.8 mg/dL)
[4] = stage 3 (serum creatinine 2.9 to 5.0 mg/dL)
[5] = stage 3 (serum creatinine 2.9 to 5.0 mg/dL), Kaplan-Meier

Q: Which “3-year stage progression-free rate” value (cats with CKD; serum creatinine 1.6 to 2.8 mg/dL (stage 2), BPS 18.5 to 42.3 μg/kg body weight/day) does the source give for `CC#CCC(C)[C@H](O)/C=C/[C@@H]1[C@H]2c3cccc(CCCC(=O)[O-])c3O[C@H]2C[C@H]1O.[Na+]` (stereo partly drawn) [BPS, Beraprost sodium] here?
A: The value was 74.7%.

Q: And the “3-year stage progression-free rate” value (cats with CKD; serum creatinine 2.9 to 5.0 mg/dL (stage 3), BPS 14.1 to 52.4 μg/kg body weight/day)?
A: Its value is 32.7%.

Q: And the “3-year stage progression-free rate of BPS therapy group relative to No BPS therapy group” value (cats with CKD; [3])?
A: Its value is 0.83 times.

Q: What about the “average stage progression-free period of BPS therapy group relative to No BPS therapy group” value (cats with CKD; [3]) of the same molecule?
A: The value was 0.93 times.

Q: What about the “effect on progression into stage 4” value (cats with CKD; stage 2 (serum creatinine 1.6 to 2.8 mg/dL) before initiation of administration) of the same molecule?
A: Its value is “no effects of BPS administration to inhibit progression into stage 4 were observed”.

Q: What about the “average period before progression into stage 4” value (cats with CKD; stage 2 (serum creatinine 1.6 to 2.8 mg/dL), Kaplan-Meier) of the same molecule?
A: The value was 38.0 months.

Q: And the “3-year stage progression-free rate of BPS therapy group relative to No BPS therapy group” value (cats with CKD; [4])?
A: The value was 1.25 times.

Q: And the “average stage progression-free period of BPS therapy group relative to No BPS therapy group” value (cats with CKD; [4])?
A: Its value is 1.49 times.

Q: And the “effect on progression into stage 4” value (cats with CKD; stage 3 (serum creatinine 2.9 to 5.0 mg/dL) before initiation of administration)?
A: The value was “effects of BPS administration to inhibit progression into stage 4 were observed”.

Q: And the “average period before progression into stage 4” value (cats with CKD; [5])?
A: Its value is 26.5 months.

Q: What about the “median period before progression into stage 4” value (cats with CKD; [5]) of the same molecule?
A: The value was 31.6 months.

Q: And the “kidney function (serum creatinine, BUN, other indicators) and clinical symptoms” value ([1]; 150 μg twice daily for 6 months)?
A: The value was “an improvement in kidney function”.

Q: And the “kidney function” value ([1]; serum creatinine 1.6 to 2.4 mg/dL (mild), 150 μg twice daily for 6 months)?
A: Its value is “improved kidney function was observed in all of the 4 subject cats”.

Q: What about the “kidney function” value ([1]; serum creatinine 2.4 to 4.0 mg/dL (moderate), 150 μg twice daily for 6 months) of the same molecule?
A: Its value is “improved kidney function was observed in the 2 subject cats, and retained kidney function was observed in other 2 cats”.

Q: What about the “kidney function” value ([1]; serum creatinine higher than 4.0 mg/dL (severe), 150 μg twice daily for 6 months) of the same molecule?
A: Its value is “improved kidney function was observed in a cat, and temporary improvement, followed by impairment, was observed in other 3 cats”.

Q: And the “uremia” value ([1]; cat with uremia caused by chronic renal failure (WO '668))?
A: Its value is “improved uremia”.

Q: And the “recovery from chronic renal failure” value ([1]; mild chronic renal failure, serum creatinine 1.4 to 2.0 mg/dL, 150 μg twice daily for 6 months)?
A: The value was “recovery from chronic renal failure was observed in 2 cats”.

Q: And the “effects of BPS in chronic renal failure” value [2]?
A: Its value is “effects of BPS are not observed”.
